From paper PMC4920673, “Nitroimidazole carboxamides as antiparasitic agents targeting Giardia lamblia, Entamoeba histolytica and Trichomonas vaginalis” (European Journal of Medicinal Chemistry, 2016)
In brackets after ≈: the same amount, converted by molar mass. Like-named read-outs stand apart in the source and are kept apart here.

Key:
[1] = Resazurin cytotoxicity assay, HEK293; format: cell-based, Human; settings: human, 24 h, highest concentration 100 μM, n = 3, read-out: CC50 HEK 293
Procedure: (§1) Human HEK293 and HepG2 cells were seeded at 3000 and 5000 cells per well in 384-well plates, respectively. Cells were cultured in Dulbecco's modified Eagle's medium with 10% FBS for 24 h at 37 °C, 5% CO2. A dilution series of compounds was added, with the highest concentration of 100 μM. […] After 24 h incubation with the compounds, 5 μM resazurin was added into each well and incubated at 37 °C for 2 h. As a negative control, 1% Triton X-100 was added into the culture media to lyse all of the cells. The fluorescence intensity was read using Polarstar Omega with excitation/emission 560/590 nm. Data were analysed with GraphPad Prism 6 software (La Jolla, California USA) to calculate CC50 values.

[2] = Resazurin cytotoxicity assay, HepG2; format: cell-based, Human; settings: human, 24 h, highest concentration 100 μM, n = 3, read-out: CC50 Hep G2
Procedure: as §1

T. vaginalis F1623 = assay: ATP-bioluminescence growth/survival EC50 assay, T. vaginalis; format: cell-based, Trichomonas vaginalis
Procedure: (§2) Compounds were screened for antiparasitic activity using an ATP-bioluminescence based assay for cell growth and survival, [24]. […] Viable cell numbers were determined in triplicate using the CellTiter-Glo Luminescent Cell Viability Assay.

E. histolytica HM1:IMSS = assay: ATP-bioluminescence growth/survival EC50 assay, E. histolytica; format: cell-based, Entamoeba histolytica; settings: Entamoeba histolytica
Procedure: as §2

[3] = system: C. difficile 630 (ATCC BAA-1382); assay: Broth microdilution MIC assay, C. difficile 630; format: cell-based, Clostridium difficile; settings: Clostridioides difficile, ATCCBAA1382
Procedure: Clostridium difficile strains (630, ATCC BAA-1382 and NAP1/027, ATCC BAA-1803) were maintained as previously described. The minimum inhibition concentration (MIC) was determined according to the CLSI Methods with modifications in broth and inoculum for C. difficile, [25], [26]. Briefly, compounds and control antibiotics were serially diluted two-fold in 96-well plates (Non-binding surface, Corning). […] C. difficile bacteria from BHIS(TA) agar plates were cultured anaerobically in BHIS at 37 °C overnight. […] An antibiotic standard, a positive growth control (no compound) and a sterility control (no bacteria) were included on each 96 well plate. Plates were covered and incubated at 37 °C for 24 h. MICs for each strain were determined as the lowest concentration without visible growth. […] Median MICs are reported with a range given when the median MIC was between two tested concentrations.

G. lamblia WB (MtzS) = assay: ATP-bioluminescence growth/survival EC50 assay, G. lamblia WB; settings: for S.I (CC50/EC50): average cytotoxicity against HEK293 and HepG2 / G. lamblia WB activity
Procedure: as §2

G. lamblia 713M3 (MtzR) = assay: ATP-bioluminescence growth/survival EC50 assay, G. lamblia 713M3; format: cell-based, Giardia lamblia; settings: Giardia duodenalis
Procedure: as §2

[4] = system: C. difficile NAP1/027 (ATCC BAA-1803); assay: Broth microdilution MIC assay, C. difficile NAP1/027; format: cell-based, Clostridium difficile; settings: Clostridioides difficile, ATCCBAA1803; strain NAP1/027
Procedure: Clostridium difficile strains (630, ATCC BAA-1382 and NAP1/027, ATCC BAA-1803) were maintained as previously described. The minimum inhibition concentration (MIC) was determined according to the CLSI Methods with modifications in broth and inoculum for C. difficile, [25], [26]. Briefly, compounds and control antibiotics were serially diluted two-fold in 96-well plates (Non-binding surface, Corning). The plates were placed in a Coy anaerobic chamber (5% H2, 10% CO2, 85% N2) overnight to reduce the medium. C. difficile bacteria from BHIS(TA) agar plates were cultured anaerobically in BHIS at 37 °C overnight. […]. Compound concentration ranged from 64 to 0.03 μg/mL. An antibiotic standard, a positive growth control (no compound) and a sterility control (no bacteria) were included on each 96 well plate. Plates were covered and incubated at 37 °C for 24 h. MICs for each strain were determined as the lowest concentration without visible growth. Variance between replicates was typically within one 2-fold dilution. Median MICs are reported with a range given when the median MIC was between two tested concentrations.

[5] = Trichomonas vaginalis, read-out: EC50 T. vaginalis F1623, MtzS, minimum n = 3
[6] = Trichomonas vaginalis, read-out: pEC50 ± SE T. vaginalis F1623, MtzS (converted)
[7] = read-out: EC50 E. histolytica HM1:IMSS
[8] = read-out: pEC50 ± SE E. histolytica HM1:IMSS (converted)
[9] = strain 630, MtzS, median of n = 4, read-out: MIC C. difficile 630
[10] = Giardia duodenalis, read-out: EC50 G. lamblia WB, MtzS strain WB, minimum n = 3
[11] = Giardia duodenalis, read-out: pEC50 ± SE G. lamblia WB, MtzS strain WB (converted)
[12] = read-out: EC50 G. lamblia 713M3, MtzR strain 713M3, minimum n = 3
[13] = read-out: pEC50 ± SE G. lamblia 713M3, MtzR strain 713M3 (converted)

| Compound | CC50 at 24 h ([1]; HEK293 cells) [µM] | CC50 at 24 h ([2]; HepG2 cells) [µM] | EC50 (T. vaginalis F1623; [5]) [µM] | EC50 (T. vaginalis F1623; [6]) [µM] | EC50 (E. histolytica HM1:IMSS; [7]) [µM] | EC50 (E. histolytica HM1:IMSS; [8]) [µM] | MIC [3, 9] [µg/mL] | EC50 (G. lamblia WB (MtzS); [10]) [µM] | EC50 (G. lamblia WB (MtzS); [11]) [µM] | S.I (CC50/EC50) (G. lamblia WB (MtzS)) | EC50 (G. lamblia 713M3 (MtzR); [12]) [µM] | EC50 (G. lamblia 713M3 (MtzR); [13]) [µM] | MIC [4] [µg/mL] | CC50 at 24 h [1] [µM] | CC50 at 24 h [2] [µM] | EC50 (T. vaginalis F1623; read-out: EC50 T. vaginalis F1623, MtzS, minimum n = 3) [µM] | MIC ([3]; 630 and NAP1/027 strains together or strain not given, read-out: MIC C. difficile) [µg/mL] | EC50 (G. lamblia WB (MtzS); read-out: EC50 G. lamblia WB, MtzS strain WB, minimum n = 3) [µM] |
| --- | --- | --- | --- | --- | --- | --- | --- | --- | --- | --- | --- | --- | --- | --- | --- | --- | --- | --- |
| CNC(=O)c1ncc([N+](=O)[O-])[nH]1 [Compound 12m, N-methyl-5-nitro-1H-imidazole-2-carboxamide] | > 100 | > 100 | 8.5 | 8.51 | 6.1 | 6.17 | 0.5 to 1 (≈ 2.94 to 5.88 µM) | 9.9 | 10 | >10 | > 20 | > 20 | 1 (≈ 5.88 µM) |  |  |  |  |  |
| CC(NC(=O)c1ncc([N+](=O)[O-])n1C)c1ccc(F)cc1 (stereo not drawn) [Compound 8d, N-(1-(4-fluorophenyl)ethyl)-1-methyl-5-nitro-1H-imidazole-2-carboxamide] | > 100 | > 100 | 3.8 | 3.8 | 10 | 10 | 64 (≈ 219 µM) | 2.9 | 2.88 | >34 | 1.9 | 1.86 | > 64 |  |  |  |  |  |
| Cn1c([N+](=O)[O-])cnc1C(=O)N1CCCC1 [Compound 8i, (1-methyl-5-nitro-1H-imidazol-2-yl)(pyrrolidin-1-yl)methanone] | > 100 | > 100 | 1.7 | 1.74 | 22 | 21.9 | 64 (≈ 285 µM) | 2.9 | 2.88 | >34 | 4 | 3.98 | 64 (≈ 285 µM) |  |  |  |  |  |
| NC(=O)c1ncc([N+](=O)[O-])[nH]1 [Compound 12l, 5-nitro-1H-imidazole-2-carboxamide] |  |  | > 20 | > 20 | 13 | 13.2 | 1 (≈ 6.41 µM) | > 50 | > 50.1 |  | > 20 | > 20 | 1 to 2 (≈ 6.41 to 12.8 µM) | > 100 | > 100 |  |  |  |
| Cn1c([N+](=O)[O-])cnc1C(=O)NC1CC1 [Compound 8j, N-cyclopropyl-1-methyl-5-nitro-1H-imidazole-2-carboxamide] | > 100 | > 100 | 1.1 | 1.1 | 12 | 12 | > 64 | 3.4 | 3.39 | >29 | 8.6 | 8.71 | > 64 |  |  |  |  |  |
| O=C(c1ncc([N+](=O)[O-])[nH]1)N1CCCC1 [Compound 12i, (5-nitro-1H-imidazol-2-yl)(pyrrolidin-1-yl)methanone] | > 100 | > 100 | 1.2 to 2.3 | 1.7 | 4.3 | 4.27 | 2 (≈ 9.52 µM) | 3.4 | 3.39 | >29 | 13 | 13.2 | 2 (≈ 9.52 µM) |  |  | 1.7 |  |  |
| O=C(NCCO)c1ncc([N+](=O)[O-])[nH]1 [Compound 12n, N-(2-hydroxyethyl)-5-nitro-1H-imidazole-2-carboxamide] | > 100 | > 100 | > 20 | > 20 | > 50 | > 50.1 | 8 (≈ 40 µM) | > 50 | > 50.1 |  | > 20 | > 20 | 8 to 16 (≈ 40 to 79.9 µM) |  |  |  | 8 to 16 (≈ 40 to 79.9 µM) |  |
| Cn1c([N+](=O)[O-])cnc1C(=O)NCc1ccccn1 [Compound 8f, 1-methyl-5-nitro-N-(pyridin-2-ylmethyl)-1H-imidazole-2-carboxamide.xTFA] | > 100 | > 100 | 1.4 | 1.45 | 14 | 14.1 | 64 | 1.6 | 1.58 | >63 | 4.1 | 4.07 | 64 |  |  |  |  |  |
| Cc1ccc(CCNC(=O)c2ncc([N+](=O)[O-])n2C)cc1 [Compound 8e, 1-methyl-N-(4-methylphenethyl)-5-nitro-1H-imidazole-2-carboxamide] | > 100 | > 100 |  | 8.13 | 13 | 12.9 | > 64 | 2.8 to 3.5 | 2.82 | >36 | > 20 | > 20 | > 64 |  |  |  |  | 2.8 |
